Results published in patent US12172965B2, “Drug conjugate comprising quinoline derivatives” (UNIVERSITE PARIS-SACLAY, priority 2018, dated 2024).
Like-named read-outs stand apart in the source and are kept apart here.

What was measured:
[1] = system: cell line HCT116; conditions: molecules 4f/4j and 4g/4k of Alami et al. J. Med. Chem. 2019; cited from earlier work
[2] = system: K562R (chronic myeloid leukemia); test: Antiproliferative activity (IC50), CellTiter Glo, K562R; format: cell-based; conditions: for IC50: Homo sapiens, K-562R
From the text: (§1) The IC50 (as per accepted terminology) activities of the compounds according to the invention 4-((3-amino-4-methoxyphenyl)(methyl)amino) quinoline-2-carbonitrile (ICQN-1); 5-(5-((2-cyanoquinolin-4-yl)(methyl)amino)-2-methoxyphenyl)-N-hydroxypent-4-ynamide (ICQN-2); and (E)-3-(5-((2-cyanoquinolin-4-yl)(methyl)amino)-2-methoxyphenyl)-N-hydroxyacrylamide (ICQN-3) were compared with compounds of the prior art and with a commercial and clinical reference compound, in particular MMAE (monomethylauristatin E). The IC50 activities were measured on various different cancer cell lines HCT116 (colorectal tumour), A549 (non-small cell lung cancer), NCI-N87 (gastric tumour), Mia-Paca-2 (pancreatic tumour), K562R (chronic myeloid leukemia), SKOV3 (ovarian tumour), SKBr3 (breast tumour, Her2 overexpression), MCF7 (breast tumour) and MDA-MB231 (breast tumour).
(§2) The cancer cell lines were obtained from the American Culture Collection (ATCC, Rockville, MD) or from the German collection of microorganisms and cell cultures of the Leibniz Institute (DSMZ, Braunschweig-Germany) or from the European collection of cell cultures (ECACC, England). The cancer cell lines were cultured according to the supplier's instructions.
(§3) The A549 lung carcinoma cells, K562R myeloid leukemia cells, and the NCI-N87 gastric carcinoma cells were cultured in Gibco Roswell Park Memorial Institute (RPMI) 1640 medium supplemented with 10% foetal calf serum (FCS) and 1% glutamine. The Mia-Paca2 carcinoma cells were cultured in Gibco Dulbecco's Modified Eagle Medium (DMEM) supplemented with 10% foetal calf serum (FCS) and 1% glutamine.
(§4) The cells were counted using a Vi-cell XR (Beckman Coulter) and the cell viability was assessed by using 0.25% trypan blue dye exclusion assay. The cells were tested for the presence of mycoplasmas prior to the experiments with the Mycoplasma PCR detection kit (Applied Biological Materials Inc., Canada) according to the manufacturer's instructions, and only mycoplasma-free cells were used for the study. The cell lines were maintained at 37° C. in a humidified atmosphere containing 5% CO2.
(§5) After 24 hours of culturing, the cells were treated with the tested compounds at 10 different final concentrations. Each concentration was obtained from serial dilutions in culture medium starting from the stock solution. The control cells were treated with the carrier. The experiments were carried out in triplicate.
(§6) The measurements were performed after 72 hours of treatment using the CellTiter Glo assay (Promega) which makes it possible to measure through bioluminescence (quantification of adenosine triphosphate—ATP) the number of living cells, by using a PolarStar Omega microplate reader (BMG-Labtech).
(§7) The dose-response curves were plotted with the Graph Prism software application and the IC50 values were calculated using the Graph Prism software based on polynomial curves (four or five parameter logistic equations).
The K562R (chronic myeloid leukemia) cells have an MDR profile that allows them to be resistant to several chemotherapeutic compounds including the reference compound MMAE.

[3] = system: A549 (non-small cell lung cancer); test: Antiproliferative activity (IC50), CellTiter Glo, A549; format: cell-based; conditions: for IC50: Homo sapiens, A549
From the text: as §1, §2, §3, §4, §5, §6, §7

[4] = system: SKOV3 (ovarian tumour); test: Antiproliferative activity (IC50), CellTiter Glo, SKOV3; format: cell-based, human; conditions: for IC50: Homo sapiens, SK-OV-3
From the text: as §1, §2
(§8) The HCT-116 human colorectal carcinoma, SK-BR3 breast carcinoma, and SK-OV-3 ovarian carcinoma cells were cultured in Gibco McCoy's 5A medium supplemented with 10% foetal calf serum (FCS) and 1% glutamine.
as §4, §5, §6, §7

[5] = system: NCI-N87 (gastric tumour); test: Antiproliferative activity (IC50), CellTiter Glo, NCI-N87; format: cell-based; conditions: for IC50: Homo sapiens, NCI-N87
From the text: as §1, §2, §3, §4, §5, §6, §7

[6] = system: HCT116 (colorectal tumour); test: Antiproliferative activity (IC50), CellTiter Glo, HCT116; format: cell-based, human; conditions: for IC50: Homo sapiens, HCT-116
From the text: as §1, §2, §8, §4, §5, §6, §7

[7] = system: Mia-Paca-2 (pancreatic tumour); test: Antiproliferative activity (IC50), CellTiter Glo, Mia-Paca-2; format: cell-based; conditions: for IC50: Homo sapiens, MIA PaCa-2
From the text: as §1, §2, §3, §4, §5, §6, §7

[8] = system: SKBr3 (breast tumour, Her2 overexpression); test: Antiproliferative activity (IC50), CellTiter Glo, SKBr3; format: cell-based, human; conditions: for IC50: Homo sapiens, SK-BR-3
From the text: as §1, §2, §8, §4, §5, §6, §7

[9] = system: MDA-MB-231 cell line; conditions: published by Chen et al.; read-out: IC50 over the MDA-MB-231 cell line; cited from earlier work
[10] = system: MDA-MB231 (breast tumour); test: Antiproliferative activity (IC50), CellTiter Glo, MDA-MB231; format: cell-based; conditions: unconjugated
From the text: as §1, §2
(§9) The breast adenocarcinoma cells MDA-MB231 and MCF7 were cultured in Gibco RPMI 1640 culture medium supplemented with 10% foetal calf serum (FCS) and 1% glutamine.
as §4, §5, §6, §7

[11] = system: MCF7 (breast tumour); test: Antiproliferative activity (IC50), CellTiter Glo, MCF7; format: cell-based; conditions: unconjugated
From the text: as §1, §2, §9, §4, §5, §6, §7

[12] = comparative data 13b / ICQN-1, unit inferred, read-out: K562R (antiproliferative activity, Table 3)
[13] = comparative data 13b / ICQN-1, unit inferred, read-out: A549 (antiproliferative activity, Table 3)
[14] = comparative data 13b / ICQN-1, unit inferred, read-out: SKOV3 (antiproliferative activity, Table 3)
[15] = comparative data 13b / ICQN-1, unit inferred, read-out: NCI-N87 (antiproliferative activity, Table 3)
[16] = comparative data 13b / ICQN-1, unit inferred, read-out: HCT116 (antiproliferative activity, Table 3)
[17] = comparative data 13b / ICQN-1, unit inferred, read-out: Mia-Paca2 (antiproliferative activity, Table 3)
[18] = comparative data 13b / ICQN-1, unit inferred, read-out: SKBr3 (antiproliferative activity, Table 3)
[19] = resistant cancer cells, MDR profile
[20] = ratio versus MMAE, unconjugated
[21] = ratio versus prior-art payload ICQO-1

Q: With `C=C(c1ccc2c(c1)c1ccccc1n2C)c1cc(C)nc2ccccc12` as the compound, how does the IC50 [1] read?
A: 2 nM

Q: Which IC50 [1] does the source give for `C=C(c1ccc2c(c1)c1ccccc1n2C)c1cc(C#N)nc2ccccc12` here?
A: 12 nM

Q: With `COc1ccc(N(C)c2cc(C)nc3ccccc23)cc1N` [Compound 13b, reference compound] as the compound, how does the IC50 [2, 12] read?
A: 3.59 nM

Q: And the IC50 [3, 13]?
A: 0.68 nM

Q: And the IC50 [4, 14]?
A: 1.28 nM

Q: And the IC50 [5, 15]?
A: 4.36 nM

Q: And the IC50 [6, 16]?
A: 2.15 nM

Q: What about the IC50 [7, 17] of the same compound?
A: 0.92 nM

Q: What about the IC50 [8, 18] of the same compound?
A: 2.17 nM

Q: What about the IC50 [9] of the same compound?
A: 3.2 nM

Q: Which IC50 [2, 12] does the source give for `COc1ccc(N(C)c2cc(C#N)nc3ccccc23)cc1N` [ICQN-1, 4-((3-amino-4-methoxyphenyl)(methyl)amino) quinoline-2-carbonitrile] here?
A: 0.47 nM

Q: And the IC50 ([2]; free, unconjugated, 72 hours of treatment, read-out: K562R IC50)?
A: 0.47 nM

Q: What about the IC50 ([2]; nM given only in VB118 cells, read-out: K562R (antiproliferative activity, Table 6)) of the same compound?
A: 0.47 nM

Q: And the IC50 ([2]; resistant cancer cells, MDR profile, read-out: K562R (PgP+) IC50)?
A: 0.47 nM

Q: What about the “Ratio of activity 13b vs ICQN-1, K562R” value ([2]; ratio versus compound 13b) of the same compound?
A: 8

Q: What about the “Ratio vs ICQO-1, K562R (PgP+)” value [2, 19] of the same compound?
A: 4.2

Q: What about the “Ratio vs MMAE, K562R (PgP+)” value [2, 19] of the same compound?
A: 74

Q: And the IC50 ([10]; Homo sapiens, MDA-MB-231, free, 72 hours of treatment, read-out: MDA-MB231 CI50)?
A: 0.34 nM

Q: And the “IC50 Ratio ICQN1/MMAE, MDA-MB231” value ([10]; ratio versus MMAE)?
A: 4

Q: And the IC50 [3, 13]?
A: 0.72 nM

Q: What about the IC50 ([3]; free, unconjugated, 72 hours of treatment, read-out: A549 IC50) of the same compound?
A: 0.72 nM

Q: And the “Potency ratio of ICQN-1 vs MMAE (MMAE IC50 / ICQN-1 IC50), A549” value [3, 20]?
A: 6

Q: And the “Ratio of activity 13b vs ICQN-1, A549” value ([3]; ratio versus compound 13b)?
A: 1

Q: What about the IC50 [4, 14] of the same compound?
A: 0.44 nM

Q: What about the IC50 ([4]; free, unconjugated, 72 hours of treatment, read-out: SKOV3 IC50) of the same compound?
A: 0.44 nM

Q: What about the IC50 ([4]; nM given only in VB118 cells, read-out: SKOV-3 (antiproliferative activity, Table 6)) of the same compound?
A: 0.44 nM

Q: What about the “Ratio of activity 13b vs ICQN-1, SKOV3” value ([4]; ratio versus compound 13b) of the same compound?
A: 3

Q: And the “IC50 ratio ICQN-1 vs ICQO-1, SKOV-3” value [4, 21]?
A: 3

Q: And the IC50 [5, 15]?
A: 0.3 nM

Q: What about the IC50 ([5]; free, unconjugated, 72 hours of treatment, read-out: NIC-N87 IC50) of the same compound?
A: 0.3 nM

Q: And the IC50 ([5]; nM given only in VB118 cells, read-out: NCI-N87 (antiproliferative activity, Table 6))?
A: 0.3 nM

Q: What about the “IC50 Ratio ICQN1/MMAE, NCI-N87” value [5, 20] of the same compound?
A: 22

Q: And the “Ratio of activity 13b vs ICQN-1, NCI-N87” value ([5]; ratio versus compound 13b)?
A: 15

Q: And the IC50 [6, 16]?
A: 0.23 nM

Q: What about the IC50 ([6]; free, unconjugated, 72 hours of treatment, read-out: HCT116 IC50) of the same compound?
A: 0.23 nM

Q: What about the “IC50 ratio MMAE/ICQN-1 (fold potency of ICQN-1 over MMAE), HCT116” value [6, 20] of the same compound?
A: 7

Q: And the “Ratio of activity 13b vs ICQN-1, HCT116” value ([6]; ratio versus compound 13b)?
A: ~10

Q: And the “IC50 ratio ICQN-1 vs ICQO-1, HCT-116” value [6, 21]?
A: 44

Q: And the IC50 [7, 17]?
A: 0.49 nM

Q: What about the IC50 ([7]; free, unconjugated, 72 hours of treatment, read-out: Mia-Paca-2 IC50) of the same compound?
A: 0.49 nM

Q: And the IC50 ([7]; nM given only in VB118 cells, read-out: Mia-Paca-2 (antiproliferative activity, Table 6))?
A: 0.49 nM

Q: What about the “IC50 Ratio ICQN1/MMAE, Mia-Paca-2” value [7, 20] of the same compound?
A: 6

Q: What about the “Ratio of activity 13b vs ICQN-1, Mia-Paca2” value ([7]; ratio versus compound 13b) of the same compound?
A: 2

Q: What about the IC50 [8, 18] of the same compound?
A: 0.36 nM

Q: What about the IC50 ([8]; free, unconjugated, 72 hours of treatment, read-out: SKBr3 IC50) of the same compound?
A: 0.36 nM

Q: And the IC50 ([8]; nM given only in VB118 cells, read-out: SKBR3 (antiproliferative activity, Table 6))?
A: 0.36 nM

Q: And the “Ratio of activity 13b vs ICQN-1, SKBr3” value ([8]; ratio versus compound 13b)?
A: 6

Q: And the IC50 ([11]; Homo sapiens, MCF7, free, 72 hours of treatment, read-out: MCF7 CI50)?
A: 0.17 nM

Q: And the “IC50 Ratio ICQN1/MMAE, MCF7” value ([11]; ratio versus MMAE)?
A: 3
